# Measurements: ChEMBL document CHEMBL1275342 (J Med Chem, 2010)
# Target: T1, Serine/threonine-protein kinase Nek2 (Homo sapiens, UniProt P51955)
# T1 sequence (P51955 whole entry): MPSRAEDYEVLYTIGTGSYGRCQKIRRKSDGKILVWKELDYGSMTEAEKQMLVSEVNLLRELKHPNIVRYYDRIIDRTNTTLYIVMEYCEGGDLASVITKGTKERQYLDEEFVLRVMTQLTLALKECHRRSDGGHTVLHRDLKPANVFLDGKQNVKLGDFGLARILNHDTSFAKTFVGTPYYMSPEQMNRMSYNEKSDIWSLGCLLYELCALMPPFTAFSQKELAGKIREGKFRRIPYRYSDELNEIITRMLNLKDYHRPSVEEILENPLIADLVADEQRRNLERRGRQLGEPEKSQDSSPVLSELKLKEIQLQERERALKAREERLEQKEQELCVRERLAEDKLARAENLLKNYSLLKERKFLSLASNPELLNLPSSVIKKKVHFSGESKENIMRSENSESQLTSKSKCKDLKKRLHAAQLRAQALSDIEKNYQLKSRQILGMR
# Description: Inhibition of NEK2 by microfluidic assay
row,SMILES,IC50
1,Nc1nccnc1N1CCC(C(=O)O)CC1,48.5 µM
2,Nc1ncc(-c2ccsc2)nc1N1CCC(C(=O)O)CC1,7.2 µM
3,Nc1ncc(-c2cccs2)nc1N1CCC(C(=O)O)CC1,4.3 µM
4,CCc1ccsc1-c1cnc(N)c(N2CCC(C(=O)O)CC2)n1,2.1 µM
5,Nc1ncc(-c2sccc2C2CC2)nc1N1CCC(C(=O)O)CC1,1.6 µM
6,Nc1ncc(-c2sccc2C2CCCC2)nc1N1CCC(C(=O)O)CC1,3.4 µM
7,COc1ccc(-c2cnc(N)c(N3CCC(C(=O)O)CC3)n2)cc1OC,1.9 µM
8,COc1cc(OC)cc(-c2cnc(N)c(N3CCC(C(=O)O)CC3)n2)c1,1.9 µM
9,COc1ccc(-c2cnc(N)c(N3CCC(C(=O)O)CC3)n2)cc1,19.8 µM
10,Nc1ncc(-c2ccccc2)nc1N1CCC(C(=O)O)CC1,7.8 µM
11,COc1cc(-c2cnc(N)c(N3CCCCC3)n2)cc(OC)c1OC,> 50 µM
12,COC(=O)C1CCN(c2nc(-c3cc(OC)c(OC)c(OC)c3)cnc2N)CC1,18.3 µM
13,COc1cc(-c2cnc(N)c(N3CCC(C(N)=O)CC3)n2)cc(OC)c1OC,5.7 µM
14,COc1cc(-c2cnc(N)c(-c3ccc(C(=O)O)cc3C)n2)cc(OC)c1OC,> 50 µM
15,CCc1cc(-c2nc(-c3cc(OC)c(OC)c(OC)c3)cnc2N)ccc1C(=O)O,26.2 µM
16,CCC[C@@H]1C[C@H](C(=O)O)CCN1c1nc(-c2cc(OC)c(OC)c(OC)c2)cnc1N (racemic),5.4 µM
17,COc1cc(-c2cnc(N)c(N3CC[C@@H](C(=O)O)C[C@H]3C(C)C)n2)cc(OC)c1OC (racemic),5.9 µM

# Results, then the molecule that gave them:
row,IC50,SMILES
1,0.39 µM,COc1cc(-c2cnc(N)c(N3CC[C@@H](C(=O)O)[C@@H](C)C3)n2)cc(OC)c1OC
2,10.8 µM,COc1cc(-c2cnc(N)c(N3CC[C@H](C(=O)O)[C@H](C)C3)n2)cc(OC)c1OC
3,0.72 µM,COc1cc(-c2cnc(N)c(N3CC[C@@H](C(=O)O)[C@@H](C)C3)n2)cc(OC)c1OC (racemic)
4,2.7 µM,COc1cc(-c2cnc(N)c(N3CC[C@H](C(=O)O)[C@@H](C)C3)n2)cc(OC)c1OC (racemic)
5,11.3 µM,CC[C@H]1CN(c2nc(-c3cc(OC)c(OC)c(OC)c3)cnc2N)CC[C@@H]1C(=O)O (racemic)
6,11.2 µM,CCC[C@H]1CN(c2nc(-c3cc(OC)c(OC)c(OC)c3)cnc2N)CC[C@H]1C(=O)O (racemic)
7,38.3 µM,COc1cc(-c2cnc(N)c(N3CC[C@@H](C(=O)O)[C@@H](C4CC4)C3)n2)cc(OC)c1OC (racemic)
8,1.2 µM,COc1cc(-c2cnc(N)c(N3CC[C@@H](C(=O)O)C[C@H]3C)n2)cc(OC)c1OC (racemic)
9,1.4 µM,CC[C@@H]1C[C@H](C(=O)O)CCN1c1nc(-c2cc(OC)c(OC)c(OC)c2)cnc1N (racemic)

# Target: T2, Serine/threonine-protein kinase Nek1 (Homo sapiens, UniProt Q96PY6)
# T2 sequence (Q96PY6 whole entry): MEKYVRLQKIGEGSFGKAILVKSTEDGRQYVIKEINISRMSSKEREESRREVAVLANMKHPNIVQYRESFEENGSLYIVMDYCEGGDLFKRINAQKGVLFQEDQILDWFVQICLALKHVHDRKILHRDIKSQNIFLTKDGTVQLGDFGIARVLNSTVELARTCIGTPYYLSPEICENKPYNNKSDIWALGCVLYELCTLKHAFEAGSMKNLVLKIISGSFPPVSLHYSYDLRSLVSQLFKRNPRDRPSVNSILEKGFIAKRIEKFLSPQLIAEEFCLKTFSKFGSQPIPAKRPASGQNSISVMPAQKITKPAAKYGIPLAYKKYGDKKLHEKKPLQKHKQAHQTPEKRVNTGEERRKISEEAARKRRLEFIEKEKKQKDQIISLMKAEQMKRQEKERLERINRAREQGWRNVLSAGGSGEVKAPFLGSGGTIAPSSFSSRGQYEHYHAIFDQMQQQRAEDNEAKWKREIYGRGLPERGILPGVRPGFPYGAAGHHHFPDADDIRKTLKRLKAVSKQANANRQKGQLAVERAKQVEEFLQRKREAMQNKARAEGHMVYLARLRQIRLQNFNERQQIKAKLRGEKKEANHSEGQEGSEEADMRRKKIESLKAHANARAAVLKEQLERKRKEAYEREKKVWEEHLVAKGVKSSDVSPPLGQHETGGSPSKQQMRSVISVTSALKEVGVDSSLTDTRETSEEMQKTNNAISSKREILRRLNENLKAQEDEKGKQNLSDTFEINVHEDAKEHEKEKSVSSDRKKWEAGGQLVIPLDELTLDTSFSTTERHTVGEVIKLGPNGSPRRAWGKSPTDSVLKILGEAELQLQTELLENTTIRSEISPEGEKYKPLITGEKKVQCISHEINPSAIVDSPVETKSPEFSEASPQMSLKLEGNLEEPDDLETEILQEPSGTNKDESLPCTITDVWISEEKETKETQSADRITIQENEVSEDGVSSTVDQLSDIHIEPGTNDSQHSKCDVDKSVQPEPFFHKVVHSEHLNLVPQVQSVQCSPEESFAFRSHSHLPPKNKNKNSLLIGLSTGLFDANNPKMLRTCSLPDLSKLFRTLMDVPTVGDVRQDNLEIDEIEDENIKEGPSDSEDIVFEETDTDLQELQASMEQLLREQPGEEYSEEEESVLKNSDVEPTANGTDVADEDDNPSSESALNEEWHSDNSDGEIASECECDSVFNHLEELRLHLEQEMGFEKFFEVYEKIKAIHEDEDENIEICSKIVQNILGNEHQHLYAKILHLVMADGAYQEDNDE
# Assay: Inhibition of NEK1 after 1 hr at room temperature by caliper method
row,IC50,SMILES
1,2.6 µM,COc1cc(-c2cnc(N)c(N3CCC(C(=O)O)CC3)n2)cc(OC)c1OC
2,0.17 µM,COc1cc(-c2cnc(N)c(N3CC[C@@H](C(=O)O)[C@@H](C)[C@H]3C)n2)cc(OC)c1OC
3,22.5 µM,CCc1ccsc1-c1cnc(N)c(N2CCC(C(=O)O)CC2)n1

# Target: T1, Serine/threonine-protein kinase Nek2
# Remark: another data set of the same source
# Description: Inhibition of NEK2 assessed as inhibition of substrate phosphorylation
row,IC50,SMILES
1,1.6 µM,COc1cc(-c2cnc(N)c(-c3ccc(C(=O)O)cc3)n2)cc(OC)c1OC
2,1.9 µM,CCc1ccsc1-c1cnc(N)c(N2CCC(C(=O)O)CC2)n1

# Target: Serine/threonine-protein kinase PLK1 (Homo sapiens, UniProt P53350)
# Sequence (P53350 whole entry): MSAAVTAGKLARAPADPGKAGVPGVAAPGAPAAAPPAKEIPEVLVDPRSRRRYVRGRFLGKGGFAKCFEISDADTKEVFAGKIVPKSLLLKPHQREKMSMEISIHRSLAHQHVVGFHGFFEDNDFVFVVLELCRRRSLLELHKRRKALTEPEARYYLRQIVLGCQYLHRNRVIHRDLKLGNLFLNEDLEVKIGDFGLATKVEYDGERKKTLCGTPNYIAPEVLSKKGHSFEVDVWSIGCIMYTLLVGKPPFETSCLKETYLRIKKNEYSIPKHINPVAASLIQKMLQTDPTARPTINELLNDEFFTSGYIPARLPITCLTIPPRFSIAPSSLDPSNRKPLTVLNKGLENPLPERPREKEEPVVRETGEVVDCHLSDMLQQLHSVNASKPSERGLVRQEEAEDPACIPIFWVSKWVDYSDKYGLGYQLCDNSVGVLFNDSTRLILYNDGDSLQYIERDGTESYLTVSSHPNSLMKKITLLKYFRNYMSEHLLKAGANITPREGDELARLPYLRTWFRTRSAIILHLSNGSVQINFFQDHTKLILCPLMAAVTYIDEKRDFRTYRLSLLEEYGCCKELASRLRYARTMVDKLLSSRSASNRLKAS
# Assay: Inhibition of PLK1 after 75 mins at room temperature by caliper method
row,IC50,SMILES
1,22.6 µM,COc1cc(-c2cnc(N)c(N3CCC(C(=O)O)CC3)n2)cc(OC)c1OC
2,19.4 µM,COc1cc(-c2cnc(N)c(N3CC[C@@H](C(=O)O)[C@@H](C)[C@H]3C)n2)cc(OC)c1OC
3,8.5 µM,CCc1ccsc1-c1cnc(N)c(N2CCC(C(=O)O)CC2)n1

# Target: T1, Serine/threonine-protein kinase Nek2
# Remark: another data set of the same source
# Description: Inhibition of NEK2 autophosphorylation after 2 hrs by DELFIA assay
row,IC50,SMILES
1,0.71 µM,COc1cc(-c2cnc(N)c(-c3ccc(C(=O)O)cc3)n2)cc(OC)c1OC
2,0.72 µM,CCc1ccsc1-c1cnc(N)c(N2CCC(C(=O)O)CC2)n1

# Target: T3, Serine/threonine-protein kinase Chk1 (Homo sapiens, UniProt O14757)
# T3 sequence (O14757 whole entry): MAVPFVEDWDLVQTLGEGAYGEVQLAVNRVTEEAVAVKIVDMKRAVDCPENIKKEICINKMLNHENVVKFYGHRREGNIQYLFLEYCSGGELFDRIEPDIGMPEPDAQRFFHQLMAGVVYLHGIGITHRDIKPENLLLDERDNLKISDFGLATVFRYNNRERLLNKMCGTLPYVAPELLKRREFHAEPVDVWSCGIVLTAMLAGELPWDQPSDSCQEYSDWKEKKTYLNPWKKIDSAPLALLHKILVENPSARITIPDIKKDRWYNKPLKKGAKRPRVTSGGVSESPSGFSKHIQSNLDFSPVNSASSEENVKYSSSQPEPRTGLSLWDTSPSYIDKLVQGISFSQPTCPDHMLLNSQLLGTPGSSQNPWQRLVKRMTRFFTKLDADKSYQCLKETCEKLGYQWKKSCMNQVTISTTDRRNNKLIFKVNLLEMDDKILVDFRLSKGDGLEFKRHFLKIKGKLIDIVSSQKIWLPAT
# Assay: Inhibition of CHK1
row,IC50,SMILES
1,> 100 µM,COc1cc(-c2cnc(N)c(N3CCC(C(=O)O)CC3)n2)cc(OC)c1OC
2,> 100 µM,COc1cc(-c2cnc(N)c(N3CC[C@@H](C(=O)O)[C@@H](C)[C@H]3C)n2)cc(OC)c1OC
3,> 100 µM,CCc1ccsc1-c1cnc(N)c(N2CCC(C(=O)O)CC2)n1
